The record followed here is PubChem BioAssay AID1996.

≈ marks a conversion by molar mass, not a printed value.

The conditions of the data set: buffer; pH 7.4; 200.0 µM.
`O=C(CN1C(=O)NC2(CCCc3ccccc32)C1=O)NCCc1ccc(F)cc1` (stereo unspecified) yielded a solubility (kinetic) of over 59.3 µg/mL.

As for `Cc1csc(NC(=O)C2CSC3(C)CCC(=O)N23)n1` (stereo unspecified), the solubility (kinetic) is over 44.6 µg/mL.

`COc1ccccc1CNC(=O)COc1ccc2c(c1)CCC2` showed a solubility (kinetic) of 20.5 µg/mL (≈ 65.8 µM).

Take `COc1cccc(CN2CCN(C3CCOCC3)CC2CCO)c1` (stereo unspecified): the solubility (kinetic) is 46.3 µg/mL (≈ 138 µM). Turning to `COCCn1c(C)cc(C(=O)COC(=O)c2cccnc2SC)c1C`, the kinetic solubility was 5.2 µg/mL (≈ 14.3 µM). This solubility kinetic is about 8.9-fold lower than that of the compound before.

The compound `COc1ccc(NC(=O)Cn2cc(C(C)=O)c3ccccc32)cc1` gave a kinetic solubility of 0.5 µg/mL (≈ 1.55 µM). Under `Cc1ccc(S(=O)(=O)N2CCC[C@H]2C(=O)OCC(=O)N2CCc3ccccc32)cc1` stands 10.8 µg/mL (≈ 25.2 µM). As to `Cn1cc2cc(NC(N)=S)ccc2n1`, the kinetic solubility is over 30.9 µg/mL. Compound `NS(=O)(=O)c1cccc(NC(=O)c2ccc(NS(=O)(=O)c3cccc([N+](=O)[O-])c3)cc2)c1` gave a kinetic solubility of over 71.5 µg/mL. Under `O=C(c1ccc(Cl)c(S(=O)(=O)N2CCOCC2)c1)N1CCCC1` stands over 53.8 µg/mL; under `COCCN(C(=O)c1ccco1)c1nc(-c2ccccc2)cs1`, 5.7 µg/mL (≈ 17.4 µM). Take `CSc1ncc(C(=O)NCCCc2ccccc2)c(C)n1`: the solubility (kinetic) came out at 43 µg/mL (≈ 143 µM). This solubility kinetic is about 7.5-fold higher than that of the compound before. The figure for `CN1CCN(Cc2cc3c(cc2[N+](=O)[O-])OCO3)CC1` is 38.3 µg/mL (≈ 137 µM); for `O=C(O)c1ccc(N2C(=O)CCCC2=O)cc1` it is 25.9 µg/mL (≈ 111 µM); for `COc1ccc(OC(=O)NCCc2ccccc2)cc1` it is 24.3 µg/mL (≈ 89.6 µM). The figure for `O=C(CNS(=O)(=O)c1c(F)cccc1F)NC1CCCc2ccccc21` (stereo unspecified) is over 57.1 µg/mL; for `c1ccc(CO/N=C(\c2ccc(C3CC3)nc2)C2CC2)cc1` it is 1.9 µg/mL (≈ 6.5 µM). The compound `CC(=O)/C(C=Nc1noc(C)c1Br)=C(\C)O` returned a solubility (kinetic) of 37.6 µg/mL (≈ 131 µM). This solubility kinetic is about 20-fold higher than that of the compound before.

Take `CC(=O)N/N=C(\C)c1cccc(C(F)(F)F)c1`: the kinetic solubility was over 36.6 µg/mL. In the case of `CCN(Cc1ccncc1)C(=O)c1ccc(C)o1`, the solubility (kinetic) is over 36.6 µg/mL. The figure for `COc1ccc(NS(=O)(=O)c2ccc3[nH]c(=O)[nH]c3c2)cc1` is 12.7 µg/mL (≈ 39.8 µM).

The compound `O=C(COC(=O)c1ccc[nH]c1=O)Nc1ccc2c(c1)OC(F)(F)O2` showed a solubility (kinetic) of over 52.8 µg/mL.

As to `Cc1ccc(S(=O)(=O)N2CCOCC2)cc1NC(=O)COC(=O)c1ccc(Br)cc1`, the kinetic solubility amounted to 5.3 µg/mL (≈ 10.7 µM). Under `Cc1cccc(N(Cc2ccccc2)C(=O)CCl)c1` stands over 41.1 µg/mL; under `CSc1ccc(CNCCN2CCOCC2)cc1.Cl`, over 50.9 µg/mL. Turning to `NC(=O)CSc1nc2ccccc2c(=O)n1-c1ccccc1`, the kinetic solubility was over 46.7 µg/mL. In turn, `COc1ccc(CCC(=O)Nc2cnc3ccccc3c2)cc1` gave a solubility (kinetic) of 1 µg/mL (≈ 3.26 µM). Regarding `N#Cc1cccc(NC(=O)CN2CCN(Cc3ccccc3)CC2)c1`, the solubility (kinetic) was 49.8 µg/mL (≈ 149 µM). The compound `O=S(=O)(c1ccccc1)N(CC(O)CN1CCCC1)c1ccccc1` (stereo unspecified) came in with a solubility (kinetic) of 50 µg/mL (≈ 139 µM).

Compound `O=C(COc1ccc2cc(Br)ccc2c1)N1CCOCC1` yielded a solubility (kinetic) of over 52.5 µg/mL. `CC1CCN(C(=O)CC#N)CC1` had a kinetic solubility of over 24.9 µg/mL. The figure for `O=C(NC1CCCCCCC1)c1cccs1` is 22.5 µg/mL (≈ 94.8 µM); for `CCOC(=O)c1cc(NC(=O)Nc2cc(C)ccn2)c(C)nc1C` it is 0.3 µg/mL (≈ 0.914 µM); for `Cc1ccc(CC(=O)Nc2cc(C)ccn2)cc1` it is over 36 µg/mL. For `COc1cccc(C(=O)Nc2cccnc2)c1OC`, the kinetic solubility was over 38.7 µg/mL. `Cc1cc(C(=O)NC(C)C2CC2)c(Cl)cc1Cl` (stereo unspecified): the solubility (kinetic) stood at 4.7 µg/mL (≈ 17.3 µM). For `Cc1cc(N2CC(C(=O)Nc3nccs3)CC2=O)ccc1C(C)C` (stereo unspecified), the kinetic solubility amounted to 1.4 µg/mL (≈ 4.08 µM). Regarding `COc1ccc(C(=O)NCCSCc2cccc(Cl)c2)cc1OC`, the solubility (kinetic) came out at 6.3 µg/mL (≈ 17.2 µM). Under `O=C(Nc1cccc(S(=O)(=O)N2CCOCC2)c1)C1CC1` stands over 46.6 µg/mL; under `COc1ccc2cc(S(=O)(=O)NCc3cccnc3)ccc2c1`, 13.8 µg/mL (≈ 42 µM); under `Cc1ccc(NC(=O)CNC(C)c2ccccc2)cc1.Cl` (stereo unspecified), over 45.7 µg/mL.

A word on the solubility (kinetic): it is solubility judged after dilution from a stock solution rather than from solid.
